The values that follow come from paper doi:10.1101/2025.01.31.635529v3 (biorxiv, 2025).

Molecules are shown by their SMILES.

Usually Kd stands for the free concentration of one partner at which half of the binding sites on the other are occupied at equilibrium, for simple one-to-one binding. A high value points to a looser complex.

This assay deals with T1, PaAtg18 (Atg18) (Ogataea angusta, UniProt Q5QA94).
T1 sequence (Q5QA94 1-525): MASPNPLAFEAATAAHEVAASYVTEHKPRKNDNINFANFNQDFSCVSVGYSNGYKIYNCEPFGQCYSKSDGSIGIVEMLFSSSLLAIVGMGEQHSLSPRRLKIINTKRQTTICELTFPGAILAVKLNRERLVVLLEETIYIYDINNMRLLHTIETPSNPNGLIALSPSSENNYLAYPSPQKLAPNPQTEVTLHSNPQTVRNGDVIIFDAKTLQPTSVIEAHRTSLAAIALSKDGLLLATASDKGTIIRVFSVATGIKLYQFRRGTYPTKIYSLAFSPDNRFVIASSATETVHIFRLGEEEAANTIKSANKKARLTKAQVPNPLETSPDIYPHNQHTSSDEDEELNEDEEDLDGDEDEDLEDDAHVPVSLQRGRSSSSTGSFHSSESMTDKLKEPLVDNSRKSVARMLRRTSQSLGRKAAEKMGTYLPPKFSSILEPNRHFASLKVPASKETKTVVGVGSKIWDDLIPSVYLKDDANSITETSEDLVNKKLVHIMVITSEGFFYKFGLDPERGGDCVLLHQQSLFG
The assay is described as follows: isothermal titration calorimetry. The format is binding. A general note: ITC needs no label: the signal is the heat of the interaction.
Regarding `O=P(O)(O)O[C@H]1[C@H](O)[C@@H](O)[C@H](OP(=O)(O)O)[C@@H](OP(=O)(O)O)[C@H]1O` [Ins(1,3,4)P3], the Kd turned out to be 85.6 ± 23.5 µM.
Compound `O=P(O)(O)O[C@H]1[C@H](O)[C@@H](OP(=O)(O)O)[C@H](O)[C@@H](OP(=O)(O)O)[C@H]1O` [Ins(1,3,5)P3] came in with an equilibrium dissociation constant (Kd) of 37.4 ± 1.3 µM.
As for `O=P(O)(O)O[C@@H]1[C@H](O)[C@H](O)[C@@H](OP(=O)(O)O)[C@H](OP(=O)(O)O)[C@H]1O` [Ins(1,4,5)P3], the figure is 116 ± 14 µM.
